We go through three compounds from publication PMC10367051, “Comprehensive Mechanistic View of the Hydrolysis of Oxadiazole-Based Inhibitors by Histone Deacetylase 6 (HDAC6)” (ACS Chemical Biology, 2023).

Where a chain is given by its changes, count along the chain named.

Common to all, as to format: biochemical
For one assay, the target named is T1, HDAC6(Y745F) mutant (Danio rerio, UniProt F8W4B7, Y745F).
T1 construct: Danio rerio HDAC6 (amino acids 440–798; zHDAC6); His (N, cleaved yes); MBP (N, cleaved yes); made in house; host or cells: RIPL Escherichia coli
T1 sequence (F8W4B7 440-798 Y745F): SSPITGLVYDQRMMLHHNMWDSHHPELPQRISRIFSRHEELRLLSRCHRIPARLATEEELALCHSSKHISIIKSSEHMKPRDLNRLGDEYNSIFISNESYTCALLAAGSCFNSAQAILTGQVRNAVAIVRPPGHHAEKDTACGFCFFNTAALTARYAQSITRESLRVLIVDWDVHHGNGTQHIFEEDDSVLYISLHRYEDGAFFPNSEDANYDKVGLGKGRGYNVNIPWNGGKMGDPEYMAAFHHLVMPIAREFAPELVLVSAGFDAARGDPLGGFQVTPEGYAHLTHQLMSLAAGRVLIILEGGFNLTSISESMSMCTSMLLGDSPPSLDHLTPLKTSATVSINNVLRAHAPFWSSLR
The assay is described as follows: Inhibitor hydrolysis in vitro by HDAC6(Y745F) mutant (LC-MS/MS). Conditions: 30 °C; for hydrolysis by the HDAC6(Y745F) mutant: 20 μM compound, 2 μM enzyme. Here is the method: (§1) The zHDAC6 mutants (Y745F and H574A) were constructed using the Quick-change site-directed mutagenesis protocol with the pEC566-zHDAC6 expression plasmid as a template. Both mutants were expressed and purified as described above for wild-type zHDAC6 (Figure S2).
(§2) Mass spectrometry quantification of inhibitors/reaction products was carried out with a Shimadzu LCMS-8040 instrument (Shimadzu, HPLC Prominence system). Analytes were separated on a Kinetex XB-C18 2.6 μm, 100 Å column (50 × 2.1 mm; Phenomenex) in a linear 15–60% CH3CN/H2O gradient containing 0.1% formic acid at a flow rate of 0.8 mL min^–1 over 4 min. Multiple reaction monitoring (MRM) parameters were optimized for each analyte, and corresponding major CID fragments were used for quantification. Analytes were quantified using corresponding calibration curves generated from pure compounds dissolved in water.
(§3) […] […] Four microliter aliquots of reaction mixtures were injected into the system directly from the 96-well plate, and inhibitors/reaction products were quantitated as described above.

A further assay deals with T2, HDAC6(H574A) mutant (Danio rerio, UniProt F8W4B7, H574A).
T2 construct: Danio rerio HDAC6 (amino acids 440–798; zHDAC6); His (N, cleaved yes); MBP (N, cleaved yes); made in house; host or cells: RIPL Escherichia coli
T2 sequence (F8W4B7 440-798 H574A): T1 sequence (F8W4B7 440-798 Y745F) with H135A, F306Y
The assay is described as follows: Inhibitor hydrolysis in vitro by HDAC6(H574A) mutant (LC-MS/MS). Conditions: 20 μM compound, 2 μM enzyme, 30 °C. Here is the method: as §1, §2, §3

The target of the next assay is T3, zHDAC6 (WT) (Danio rerio, UniProt F8W4B7).
T3 construct: Danio rerio HDAC6 (amino acids 440–798; zHDAC6); His (N, cleaved yes); MBP (N, cleaved yes); made in house; host or cells: RIPL Escherichia coli
T3 sequence (F8W4B7 440-798): T1 sequence (F8W4B7 440-798 Y745F) with F306Y
The assay can be described thus: Inhibition assay, zebrafish HDAC6 catalytic DD2 domain, wild type. As to the method:
The second catalytic domain of Danio rerio HDAC6 (amino acids 440–798; zHDAC6) was expressed in RIPL Escherichia coli as described previously using the pEC566-zHDAC6 expression vector.[16],[38] Briefly, bacteria were incubated at 37 °C with shaking (250 rpm) until the optical density reached an OD600 = 0.5. Then, the culture was cooled to 18 °C for 1 h, and recombinant protein expression was induced by the addition of 75 μM isopropyl β-D-1-thiogalactopyranoside together with 200 μM ZnSO4. The culture was grown at 18 °C for an additional 18 h and harvested by centrifugation at 5500g for 15 min. The cell pellet was resuspended in the lysis buffer (50 mM phosphate, 300 mM NaCl, 10% glycerol, and 20 mM imidazole at pH 8; 5 mL g^–1 bacterial pellet) and lysed by three passages through EmulsiFlex (Avestin). Cell lysates were centrifuged (15,000g at 4 °C for 20 min), and the fusion protein in the supernatant was purified via Ni-NTA chromatography. […] The purity of protein preparations was monitored by SDS-PAGE (Figure S2).
Optimized fluorometric assays were used to determine inhibition constants of studied compounds against individual HDAC isoforms as described previously.[32] […] Deacetylation reactions were monitored either by high-performance liquid chromatography (HPLC) (HDAC10) or by quantification of released AMC (λex/λem = 365/440 nm) using a CLARIOstar plate reader (BMG Labtech GmbH).

Take `CS(=O)(=O)N(Cc1ccc(-c2nnc(C(F)F)o2)cn1)c1cccc(Cl)c1` [compound 8]: the “rate of hydrolysis by the HDAC6(Y745F) mutant relative to wild type” value on HDAC6(Y745F) mutant (20 μM 8, 2 μM enzyme) is on record as “comparable to the wild-type HDAC6”. Also, the “hydrolysis by the HDAC6(Y745F) mutant” value at HDAC6(Y745F) mutant is given as “hydrolyzed”. At HDAC6(H574A) mutant, the “hydrolysis by the HDAC6(H574A) mutant” value was “no hydrolysis was observed”.
The compound `CS(=O)(=O)N(Cc1ccc(C(=O)NN)cn1)c1cccc(Cl)c1` [compound 4] registered a 50% inhibitory concentration (IC50) against zHDAC6 (WT) of 3.87 ± 1.64 µM.
Take `CS(=O)(=O)N(Cc1ccc(C(=O)NNC(=O)C(F)F)cn1)c1cccc(Cl)c1` [compound 6]: the “hydrolysis by the HDAC6(Y745F) mutant” value at HDAC6(Y745F) mutant is recorded as “hydrolyzed”. Further, inhibition against zHDAC6 (WT) was half-maximal at 41.7 µM (IC50).

A word on the IC50: it is the concentration at which inhibition is half-maximal. A higher IC50 goes with lower potency.
